Measured values published in US7666834B2, “Macrocyclic inhibitors of hepatitis C virus” (Tibotec Pharmaceuticals Ltd., priority 2005, dated 2010).
Where two headings read alike, the source gives them in different places.

Tests used:
[1] = rcm bond, DCE
[2] = rcm bond; 14-membered ring; Hoveyda-Grubbs II (25 mol%); DCE; 1.46 mM; 150.0 °C
HCV = details: sustained administration; mutations D168V, D168A and/or A156S; cited from earlier work
[3] = test system: HCV replicons (NS3-NS5B regions of HCV type 1b) in Huh-7 luc/neo cells; assay: Replicon assay (Huh-Luc cells, luciferase readout); type: cell-based; details: Hepatitis C virus, Huh-7, 72 h, three days incubation, luciferase activity
Text: It will be appreciated that it is important to distinguish between compounds that specifically interfere with HCV functions from those that exert cytotoxic or cytostatic effects in the HCV replicon model, and as a consequence cause a decrease in HCV RNA or linked reporter enzyme concentration. Assays are known in the field for the evaluation of cellular cytotoxicity based for example on the activity of mitochondrial enzymes using fluorogenic redox dyes such as resazurin. Furthermore, cellular counter screens exist for the evaluation of non-selective inhibition of linked reporter gene activity, such as firefly luciferase.
The compounds of formula (I) were examined for activity in the inhibition of HCV RNA replication in a cellular assay. […] The cellular assay was based on a bicistronic expression construct, as described by Lohmann et al. (1999) Science vol. […]
The replicon cells were plated in 384 well plates in the presence of the test and control compounds which were added in various concentrations. Following an incubation of three days, HCV replication was measured by assaying luciferase activity (using standard luciferase assay substrates and reagents and a Perkin Elmer ViewLux™ ultraHTS microplate imager). […] The inhibitory activity of the compound on luciferase activity was monitored on the Huh-Luc cells, enabling a dose-response curve for each test compound.

HCV NS3/4A protease = HCV NS3/4A protease (Hepatitis C virus genotype 1a, UniProt P27958); assay: biochemical; details: full-length NS3 protease 1 nM, 25 μM NS4A cofactor, competitive inhibition model; read-out: Ki (nM) Enzymatic assay
Experimental: [Landro, 1997 #Biochem 36 9340-9348]. […] The solutions were stored at −20° C. between measurements.

In the case of `CCOC(=O)C12CC1C=CCCCCCN(Cc1ccc(OC)cc1)C(=O)N1CC(O[Si](C)(C)C(C)(C)C)CC1C(=O)N2` (centres unmarked), the ring closure, isolated yield ([1]; from C=CCCCCCN(Cc1ccc(OC)cc1)C(=O)N1CC(O[Si](C)(C)C(C)(C)C)CC1C(=O)NC1(C(=O)OCC)CC1C=C, 15-membered ring, Hoveyda-Grubbs II (10 mol%), 1.6 mM) is reported as 48%.

In the case of `CN1CCCCC=CC2CC2(C(=O)NS(=O)(=O)C2CC2)NC(=O)C2CC(O)CC2C1=O` (centres unmarked), the ring closure, isolated yield ([1]; 14-membered ring, Hoveyda-Grubbs II (15 mol%), 2.07 mM) is reported as 77%.

In the case of `CN1CCCCC=CC2CC2(C(=O)NS(=O)(=O)C2CC2)NC(=O)C2CC(OC(=O)Nc3ccccc3N3CCCCC3)CC2C1=O` (centres unmarked), the ring closure, yield after HPLC [2] is reported as 36%.

In the case of `COc1ccc2c(O[C@@H]3C[C@H]4C(=O)N[C@]5(C(=O)O)C[C@H]5/C=C\CCCCC[C@H](NC(=O)OC5CCCC5)C(=O)N4C3)cc(-c3csc(NC(C)C)n3)nc2c1` [BILN-2061], the “selection of drug escape mutants” value (HCV) is given as “selects HCV mutants which are resistant to the respective drug”.

With `CN1CCCC/C=C\[C@@H]2C[C@@]2(C(=O)NS(=O)(=O)C2CC2)NC(=O)[C@@H]2C[C@@H](OC(=O)Nc3ccccc3F)C[C@H]2C1=O` [Compound 25, (2-Fluorophenyl)carbamic acid 4-cyclopropanesulfonyl-aminocarbonyl-13-methyl-2,14-dioxo-3,13-diazatricyclo[13.3.0.0^4,6]octadec-7-en-17-yl ester] the EC50 [3] was 8.4 µM and the Ki (HCV NS3/4A protease) was 51 nM.

For `CCOC(=O)c1ccccc1NC(=O)O[C@@H]1C[C@H]2C(=O)N[C@]3(C(=O)NS(=O)(=O)C4CC4)C[C@H]3/C=C\CCCCN(C)C(=O)[C@@H]2C1` [Compound 26, 2-(4-Cyclopropanesulfonylaminocarbonyl-13-methyl-2,14-dioxo-3,13-diaza-tricyclo-[13.3.0.0^4,6]octadec-7-en-17-yloxycarbonylamino)-benzoic acid ethyl ester], the EC50 [3] was 0.0492 µM.

In the case of `CCC[C@H](NC(=O)[C@@H]1[C@H]2CCC[C@H]2CN1C(=O)[C@@H](NC(=O)[C@@H](NC(=O)c1cnccn1)C1CCCCC1)C(C)(C)C)C(=O)C(=O)NC1CC1` [VX-950], the “selection of drug escape mutants” value (HCV) is given as “selects HCV mutants which are resistant to the respective drug”.
